Reference: patent US5866087A, “Calixarene derivatives, their preparation process and their use for extracting actinides and lanthanides” (priority 1995, dated 1999)

Columns and labels:
[1] = liquid-liquid extraction from aqueous nitric solution, distribution coefficient D; assay type: physicochemical; settings: for D(distribution coefficient) 152-Eu: pH ≈0, 1 hour contacting
Description: In these examples, an evaluation takes place of the effectiveness of the calixarenes of table 1 for extracting plutonium, neptunium and americium, as well as europium (simulating all the trivalent lanthanides) of an aqueous solution containing one of these elements. The composition of the aqueous solution is as follows:
[…] Contacting takes place in a 20 ml polypropylene tube, which undergoes stirring. After 1 hour of contacting, the two phases are allowed to settle and the activity of each phase is counted by liquid scintillation or α and γ spectrometries.
The distribution coefficient D is then determined and this corresponds to the ratio of the activity of actinide in the organic phase to the activity of actinide in the aqueous phase.

[2] = supported liquid membrane transport into aqueous reextraction solution; assay type: physicochemical; settings: for Percentage transported in 6 h. 237 Np / Percentage transported in 6 h. 239 Pu / Percentage transported in 6 h. 241 Am / Percentage of 239Pu transported in 24 h / Percentage transported in 24 h. 237 Np / Percentage transported in 24 h. 241 Am / Percentage transported in 6 h. 152 Eu / Percentage transported in 24 h. 152 Eu: supported liquid membrane, 0.001 or 0.0001M calixarene (CMPO 10^-2 M); for Permeability (cm/h) 237 Np / Permeability (cm/h) 239 Pu / Permeability (cm/h) 241 Am / Permeability (cm/h) 152 Eu: CELGARD 2500 membrane, nitrophenylhexyl ether with 0.001 or 0.0001M calixarene (CMPO 10^-2 M), reextraction 1 mole/l methylene diphosphonic acid
Excerpt: These examples use the second embodiment of the process according to the invention for extracting europium, neptunium, plutonium and americium from aqueous solutions having the same compositions as those used in examples 7 to 16. These examples use the device shown in the attached drawing.
This device comprises an enclosure 1 subdivided into two compartents 3 and 5 by a supported liquid membrane 7, constituted by a microporous polypropylene membrane marketed under the name CELGARD 2500 and having the following characteristics:
membrane thickness: 0.025 mm.
The pores of this membrane are filled with an organic phase constituted by nitrophenylhexyl ether incorporating 0.001 or 0.0001M of calixarene.
Compartment 3 contains 50 ml of aqueous solution (NaNO3 :4 mole/l, HNO3 : 1mole/l with Eu, Np, Pu, Am); and compartment 5 contains 50ml of an aqueous reextraction solution constituted by an aqueous solution with 1 mole/l of methylene diphosphonic acid.
The two solutions are stirred and the initial activity of the solution of compartment 3 is determined, followed by the activity of the aqueous reextraction solution of compartment 5 by liquid α spectrometry and the operation is continued for one day. From it is deduced the percentage of neptunium, plutonium, americium and europium recovered in the aqueous reextraction solution after 6 and 24 h.
The calixarenes used, the permeability (in cm h^-1) of the membrane to Np and Pu, as well as the %, at the end of 6 and 24 h,of Eu, Am, Np and Pu recovered are given in table 3.

[3] = CMPO 0.01M in nitrophenyl hexyl ether, comparative
[4] = calixarene 0.001M in nitrophenyloctylether, aqueous HNO3, NaNO3 4 mole/l, 1 hour, * = precipitation
[5] = calixarene 0.001M in nitrophenyloctylether, aqueous HNO3, NaNO3 4 mole/l
[6] = calixarene 0.0001M in nitrophenyloctylether, aqueous HNO3, NaNO3 4 mole/l, 1 hour, * = precipitation

| SMILES | Percentage transported in 6 h. 237 Np [2] | Percentage transported in 6 h. 239 Pu [2] | Percentage transported in 6 h. 241 Am [2] | Percentage of 239Pu transported in 24 h [2] | Percentage transported in 24 h. 237 Np [2] | Percentage transported in 24 h. 241 Am [2] | Permeability (cm/h) 237 Np [2] | Permeability (cm/h) 239 Pu [2] | Permeability (cm/h) 241 Am [2] | D(distribution coefficient) 237-Np [1, 4] | D(distribution coefficient) 239-Pu [1, 4] | D(distribution coefficient) 241-Am [1, 4] | D(distribution coefficient) 152-Eu [1, 5] | also measured |
| --- | --- | --- | --- | --- | --- | --- | --- | --- | --- | --- | --- | --- | --- | --- |
| CCCCCCCCP(=O)(CC(=O)N(CC(C)C)CC(C)C)c1ccccc1 (centres unmarked) [CMPO, reference compound] | 50% | 99% | 9.8% | 100% | 68% | 45% | 0.74 cm/h | 3.44 cm/h | 0.17 cm/h |  |  |  |  | D(distribution coefficient) 237-Np [1, 3]: 0.85; D(distribution coefficient) 239-Pu [1, 3]: 22; D(distribution coefficient) 241-Am [1, 3]: 1.2 |
| CCCCCCCCCCCCOc1c2cc(NC(=O)CP(=O)(c3ccccc3)c3ccccc3)cc1Cc1cc(NC(=O)CP(=O)(c3ccccc3)c3ccccc3)cc(c1OCCCCCCCCCCCC)Cc1cc(NC(=O)CP(=O)(c3ccccc3)c3ccccc3)cc(c1OCCCCCCCCCCCC)Cc1cc(NC(=O)CP(=O)(c3ccccc3)c3ccccc3)cc(c1OCCCCCCCCCCCC)C2 [Compound 1, 25, 26, 27, 28 tetradodecyloxy-tetra-5, 11, 17, 23-(diphenylphosphinoxidoacetamido) calix[4]arene] | 56% | 84% | 97% | 85% | 66% | 100% | 1.35 cm/h | 3.4 cm/h | 4.9 cm/h | 4 | > 100 | > 100 |  | Percentage transported in 6 h. 152 Eu [2]: 95%; Percentage transported in 24 h. 152 Eu [2]: 100%; Permeability (cm/h) 152 Eu [2]: 2.75 cm/h |
| CCCCCCCCCCOc1c2cc(NC(=O)CP(=O)(c3ccccc3)c3ccccc3)cc1Cc1cc(NC(=O)CP(=O)(c3ccccc3)c3ccccc3)cc(c1OCCCCCCCCCC)Cc1cc(NC(=O)CP(=O)(c3ccccc3)c3ccccc3)cc(c1OCCCCCCCCCC)Cc1cc(NC(=O)CP(=O)(c3ccccc3)c3ccccc3)cc(c1OCCCCCCCCCC)C2 [Compound 2, tetra-O-decyl tetrakis (diphenyl phosphinoxidoacetamido)calix[4]arene] | 73% | 82% | 95.5% | 83% | 80% | 100% | 3 cm/h | 3.6 cm/h | 5 cm/h | 2 | 90 | 100 | > 100 |  |
| CCCCCCCCCCCCCCOc1c2cc(NC(=O)CP(=O)(c3ccccc3)c3ccccc3)cc1Cc1cc(NC(=O)CP(=O)(c3ccccc3)c3ccccc3)cc(c1OCCCCCCCCCCCCCC)Cc1cc(NC(=O)CP(=O)(c3ccccc3)c3ccccc3)cc(c1OCCCCCCCCCCCCCC)Cc1cc(NC(=O)CP(=O)(c3ccccc3)c3ccccc3)cc(c1OCCCCCCCCCCCCCC)C2 [Compound 3, tetra-O-tetradecyl tetrakis (diphenyl-phosphinoxidoacetamido)calix[4]arene] | 54% | 84% | 98% | 88% | 62% | 100% | 1.3 cm/h | 2.95 cm/h | 5.3 cm/h | 1.8 | 90 | > 100 | > 100 | Percentage transported in 6 h. 152 Eu [2]: 90%; Percentage transported in 24 h. 152 Eu [2]: 98%; Permeability (cm/h) 152 Eu [2]: 2.8 cm/h |
| CCCCCCCCCCCCCCCCOc1c2cc(NC(=O)CP(=O)(c3ccccc3)c3ccccc3)cc1Cc1cc(NC(=O)CP(=O)(c3ccccc3)c3ccccc3)cc(c1OCCCCCCCCCCCCCCCC)Cc1cc(NC(=O)CP(=O)(c3ccccc3)c3ccccc3)cc(c1OCCCCCCCCCCCCCCCC)Cc1cc(NC(=O)CP(=O)(c3ccccc3)c3ccccc3)cc(c1OCCCCCCCCCCCCCCCC)C2 [Compound 4, tetra-O-hexadecyl tetrakis(diphenyl-phosphinaxidoacetamido)calix[4]arene] | 21% | 54% | 3% |  |  |  | 0.46 cm/h | 1.4 cm/h | 0.08 cm/h |  |  |  |  | D(distribution coefficient) 237-Np [1, 6]: 1.1; D(distribution coefficient) 239-Pu [1, 6]: 27; D(distribution coefficient) 241-Am [1, 6]: 27 |
| CCCCCCCCCCCCCCCCCCOc1c2cc(NC(=O)CP(=O)(c3ccccc3)c3ccccc3)cc1Cc1cc(NC(=O)CP(=O)(c3ccccc3)c3ccccc3)cc(c1OCCCCCCCCCCCCCCCCCC)Cc1cc(NC(=O)CP(=O)(c3ccccc3)c3ccccc3)cc(c1OCCCCCCCCCCCCCCCCCC)Cc1cc(NC(=O)CP(=O)(c3ccccc3)c3ccccc3)cc(c1OCCCCCCCCCCCCCCCCCC)C2 [Compound 5] |  |  |  |  |  |  |  |  |  |  |  |  |  | D(distribution coefficient) 237-Np [1, 6]: 1.5; D(distribution coefficient) 239-Pu [1, 6]: 24; D(distribution coefficient) 241-Am [1, 6]: 21 |
| CCCCCCCCCCOc1c2cc(NC(=O)CP(=O)(c3ccccc3)c3ccccc3)cc1Cc1cc(NC(=O)CP(=O)(c3ccccc3)c3ccccc3)cc(c1OC)Cc1cc(NC(=O)CP(=O)(c3ccccc3)c3ccccc3)cc(c1OCCCCCCCCCC)Cc1cc(NC(=O)CP(=O)(c3ccccc3)c3ccccc3)cc(c1OC)C2 [Compound 6, 25, 27 didecyloxy-26,28-dimethoxy-5,11, 17,23-(diphenylphosphinoxido-acetamido) calix[4]arene] | 49.4% | 97.1% | 94.2% | 100% | 68.3% | 94.9% | 1.6 cm/h | 6.4 cm/h | 2.9 cm/h | 3 | 130 | 240 | > 100 |  |
| CCCCCCCCCCCCCCCCCCOc1c2cc(NC(=O)CP(=O)(c3ccccc3)c3ccccc3)cc1Cc1cc(NC(=O)CP(=O)(c3ccccc3)c3ccccc3)cc(c1OC)Cc1cc(NC(=O)CP(=O)(c3ccccc3)c3ccccc3)cc(c1OCCCCCCCCCCCCCCCCCC)Cc1cc(NC(=O)CP(=O)(c3ccccc3)c3ccccc3)cc(c1OC)C2 [Compound 7] | 42.7% | 99.7% | 92.6% | 100% | 59.4% | 99.3% | 1.3 cm/h | 7 cm/h | 3.2 cm/h | 3 | 170 | 250 | > 100 |  |
| CCCCCOc1c2cc(NC(=O)CP(=O)(c3ccccc3)c3ccccc3)cc1Cc1cc(NC(=O)CP(=O)(c3ccccc3)c3ccccc3)cc(c1OCCCCC)Cc1cc(NC(=O)CP(=O)(c3ccccc3)c3ccccc3)cc(c1OCCCCC)Cc1cc(NC(=O)CP(=O)(c3ccccc3)c3ccccc3)cc(c1OCCCCC)C2 [Compound 8] | 8.5% | 79.6% | 99% | 80% | 14.5% | 100% | < 0.2 cm/h | 3.6 cm/h | 3.4 cm/h | 2 | 100 | 250 | > 100 |  |
